According to patent US11203600B2 (Denali Therapeutics Inc., priority 2017, dated 2021):

Molecular target: GST-hRIPK1 (8-327) (Homo sapiens (Human), UniProt Q13546)
Assay: Fluorescent Polarization Binding (FP Binding) assay, RIPK1
Settings: 10 nM GST-hRIPK1 (8-327), 5 nM fluorescent-labeled ligand, RT, 30 min, mean of at least two independent experiments
Outline: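 Binding by fluorescence polarisation at RT: 10 nM baculovirus-expressed GST-hRIPK1 (8-327) and 5 nM fluorescent ligand, 30 min, in 50 mM HEPES pH 7.5, 50 mM MgCl2, 0.02% CHAPS, 1% DMSO. FP read at ex 531/em 595 nm. IC50 from normalised percent inhibition, mean of ≥2 experiments.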

GST-hRIPK1 (8-327), sequence (Q13546 8-327): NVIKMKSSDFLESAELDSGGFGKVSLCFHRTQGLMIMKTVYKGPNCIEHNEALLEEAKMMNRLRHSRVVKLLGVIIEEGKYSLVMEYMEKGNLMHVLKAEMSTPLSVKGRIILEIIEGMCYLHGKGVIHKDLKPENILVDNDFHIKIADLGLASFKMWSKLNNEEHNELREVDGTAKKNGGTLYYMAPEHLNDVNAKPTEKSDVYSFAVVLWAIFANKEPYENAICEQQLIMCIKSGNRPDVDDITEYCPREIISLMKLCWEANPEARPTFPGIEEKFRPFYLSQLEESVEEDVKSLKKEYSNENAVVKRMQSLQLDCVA

N#Cc1cncc2c1OCCN(C(=O)C13CCN(c4ncc(F)cn4)CC1C3(F)F)C2 (stereo not drawn) [Example 99, 4-[7,7-difluoro-3-(5-fluoropyrimidin-2-yl)-3-azabicyclo[4.1.0]heptane-6-carbonyl]-3,5-dihydro-2H-pyrido[3,4-f][1,4]oxazepine-9-carbonitrile]
IC50: 100 to 1000 nM

N#Cc1cncc2c1OCCN(C(=O)C1(F)CCN(c3ncc(C4CC4)cn3)CC1)C2 [Example 100, 4-[1-(5-cyclopropylpyrimidin-2-yl)-4-fluoro-piperidine-4-carbonyl]-3,5-dihydro-2H-pyrido[3,4-f][1,4]oxazepine-9-carbonitrile]
IC50: 100 to 1000 nM

COc1cnc(N2CCC(F)(C(=O)N3CCOc4c(C#N)cncc4C3)CC2)nc1 [Example 101, 4-[4-fluoro-1-(5-methoxypyrimidin-2-yl)piperidine-4-carbonyl]-3,5-dihydro-2H-pyrido[3,4-f][1,4]oxazepine-9-carbonitrile]
IC50: 100 to 1000 nM

N#Cc1cncc2c1OCCN(C(=O)C1(F)CCN(c3ncc(OC(F)F)cn3)CC1)C2 [Example 102, 4-[1-[5-(difluoromethoxy)pyrimidin-2-yl]-4-fluoro-piperidine-4-carbonyl]-3,5-dihydro-2H-pyrido[3,4-f][1,4]oxazepine-9-carbonitrile]
IC50: 100 to 1000 nM

COc1ccnc(N2CCC(F)(C(=O)N3CCOc4c(C#N)cncc4C3)CC2)n1 [Example 103, 4-[4-fluoro-1-(4-methoxypyrimidin-2-yl)piperidine-4-carbonyl]-3,5-dihydro-2H-pyrido[3,4-f][1,4]oxazepine-9-carbonitrile]
IC50: 0.1 to 100 nM

C[C@@H]1COc2c(C#N)cncc2CN1C(=O)C1CCN(c2ncc(F)cn2)CC1 [Example 104, (3R)-4-(1-(5-fluoropyrimidin-2-yl)piperidine-4-carbonyl)-3-methyl-2,3,4,5-tetrahydropyrido[3,4-f][1,4]oxazepine-9-carbonitrile]
IC50: 0.1 to 100 nM

COC1(C(=O)N2Cc3cncc(C#N)c3OC[C@H]2C)CCN(c2ncc(F)cn2)CC1 [Example 105, (3R)-4-[1-(5-fluoropyrimidin-2-yl)-4-methoxy-piperidine-4-carbonyl]-3-methyl-3,5-dihydro-2H-pyrido[3,4-f][1,4]oxazepine-9-carbonitrile]
IC50: 0.1 to 100 nM

N#Cc1cncc2c1OCCN(C(=O)C1(F)CCN(c3nccn4ccnc34)CC1)C2 [Example 106, 4-(4-fluoro-1-imidazo[1,2-a]pyrazin-8-yl-piperidine-4-carbonyl)-3,5-dihydro-2H-pyrido[3,4-f][1,4]oxazepine-9-carbonitrile]
IC50: 100 to 1000 nM

Cn1ncc2cnc(N3CCC(F)(C(=O)N4CCOc5c(C#N)cncc5C4)CC3)cc21 [Example 107, 4-[4-fluoro-1-(1-methylpyrazolo[4,3-c]pyridin-6-yl)piperidine-4-carbonyl]-3,5-dihydro-2H-pyrido[3,4-f][1,4]oxazepine-9-carbonitrile]
IC50: 100 to 1000 nM

Cn1ccc2nc(N3CCC(F)(C(=O)N4CCOc5c(C#N)cncc5C4)CC3)ncc21 [Example 108, 4-[4-fluoro-1-(5-methylpyrrolo[3,2-d]pyrimidin-2-yl)piperidine-4-carbonyl]-3,5-dihydro-2H-pyrido[3,4-f][1,4]oxazepine-9-carbonitrile]
IC50: 100 to 1000 nM

N#Cc1cncc2c1OCCN(C(=O)C1(F)CCN(c3ccc4nccn4n3)CC1)C2 [Example 109, 4-(4-fluoro-1-imidazo[1,2-b]pyridazin-6-yl-piperidine-4-carbonyl)-3,5-dihydro-2H-pyrido[3,4-f][1,4]oxazepine-9-carbonitrile]
IC50: 100 to 1000 nM

N#Cc1cncc2c1OCCN(C(=O)C1(F)CCN(c3ccnc4ccnn34)CC1)C2 [Example 110, 4-(4-fluoro-1-(pyrazolo[1,5-a]pyrimidin-7-yl)piperidine-4-carbonyl)-2,3,4,5-tetrahydropyrido[3,4-f][1,4]oxazepine-9-carbonitrile]
IC50: 0.1 to 100 nM

N#Cc1cncc2c1OCCN(C(=O)C1(F)CCN(c3ncc4c(n3)CCC4)CC1)C2 [Example 111, 4-[1-(6,7-dihydro-5H-cyclopenta[d]pyrimidin-2-yl)-4-fluoro-piperidine-4-carbonyl]-3,5-dihydro-2H-pyrido[3,4-f][1,4]oxazepine-9-carbonitrile]
IC50: 100 to 1000 nM

N#Cc1cncc2c1OCCN(C(=O)C1(F)CCN(c3ncncc3F)CC1)C2 [Example 112, 4-(4-fluoro-1-(5-fluoropyrimidin-4-yl)piperidine-4-carbonyl)-2,3,4,5-tetrahydropyrido[3,4-f][1,4]oxazepine-9-carbonitrile]
IC50: 100 to 1000 nM

N#Cc1cncc2c1OCCN(C(=O)C1(F)CCN(c3ncccc3F)CC1)C2 [Example 113, 4-[4-fluoro-1-(3-fluoro-2-pyridyl)piperidine-4-carbonyl]-3,5-dihydro-2H-pyrido[3,4-f][1,4]oxazepine-9-carbonitrile]
IC50: 100 to 1000 nM

COc1ncc(F)c(N2CCC(F)(C(=O)N3CCOc4c(C#N)cncc4C3)CC2)n1 [Example 114, 4-[4-fluoro-1-(5-fluoro-2-methoxy-pyrimidin-4-yl)piperidine-4-carbonyl]-3,5-dihydro-2H-pyrido[3,4-f][1,4]oxazepine-9-carbonitrile]
IC50: 0.1 to 100 nM

COc1ccc(N2CCC(F)(C(=O)N3CCOc4c(C#N)cncc4C3)CC2)nn1 [Example 115, 4-[4-fluoro-1-(6-methoxypyridazin-3-yl)piperidine-4-carbonyl]-3,5-dihydro-2H-pyrido[3,4-f][1,4]oxazepine-9-carbonitrile]
IC50: 100 to 1000 nM

N#Cc1cncc2c1OCCN(C(=O)C1(F)CCN(c3cccnn3)CC1)C2 [Example 116, 4-(4-fluoro-1-pyridazin-3-yl-piperidine-4-carbonyl)-3,5-dihydro-2H-pyrido[3,4-f][1,4]oxazepine-9-carbonitrile]
IC50: 100 to 1000 nM

COc1ccnc(N2CCC(C(=O)N3CCOc4c(C#N)cncc4C3)CC2)n1 [Example 117, 4-[1-(4-methoxypyrimidin-2-yl)piperidine-4-carbonyl]-3,5-dihydro-2H-pyrido[3,4-f][1,4]oxazepine-9-carbonitrile]
IC50: 0.1 to 100 nM

COc1nc(N2CCC(C(=O)N3CCOc4c(C#N)cncc4C3)CC2)ncc1F [Example 118, 4-[1-(5-fluoro-4-methoxy-pyrimidin-2-yl)piperidine-4-carbonyl]-3,5-dihydro-2H-pyrido[3,4-f][1,4]oxazepine-9-carbonitrile]
IC50: 0.1 to 100 nM

COc1ccnc(N2CCC(C(=O)N3Cc4cncc(C#N)c4OC[C@H]3C)CC2)n1 [Example 119, (3R)-4-(1-(4-methoxypyrimidin-2-yl)piperidine-4-carbonyl)-3-methyl-2,3,4,5-tetrahydropyrido[3,4-f][1,4]oxazepine-9-carbonitrile]
IC50: 0.1 to 100 nM

COc1nc(N2CCC(C(=O)N3Cc4cncc(C#N)c4OC[C@H]3C)CC2)ncc1F [Example 120, (3R)-4-(1-(5-fluoro-4-methoxypyrimidin-2-yl)piperidine-4-carbonyl)-3-methyl-2,3,4,5-tetrahydropyrido[3,4-f][1,4]oxazepine-9-carbonitrile]
IC50: 0.1 to 100 nM

COC1(C(=O)N2CCOc3c(F)cncc3C2)CCN(c2ncc(F)cn2)CC1 [Example 121]
IC50: 0.1 to 100 nM

COc1nc(N2CCC(OC)(C(=O)N3CCOc4c(F)cncc4C3)CC2)ncc1F [Example 122, (9-fluoro-3,5-dihydro-2H-pyrido[3,4-f][1,4]oxazepin-4-yl)-[1-(5-fluoro-4-methoxy-pyrimidin-2-yl)-4-methoxy-4-piperidyl]methanone]
IC50: 0.1 to 100 nM
